Assay results taken from PMC5508973 (ChemMedChem, 2017).

Legend:
[1] = system: U937; test: cells; assay type: cell-based; details: Homo sapiens, U-937, 24 h
[2] = system: MM.1S; test: cells; assay type: cell-based; details: Homo sapiens, MM1.S, 24 h
[3] = system: MM.1R; test: cells; assay type: cell-based; details: Homo sapiens, 24 h
[4] = system: K562; test: cells; assay type: cell-based; details: Homo sapiens, K562, 24 h
[5] = system: K562/ADR; test: cells; assay type: cell-based; details: Homo sapiens, 24 h
[6] = system: HeLa; test: cells; assay type: cell-based; details: Homo sapiens, 24 h
[7] = system: LO2; test: cells; assay type: cell-based; details: Homo sapiens, L02, 24 h
[8] = system: NIH3T3; test: cells; assay type: cell-based; details: Mus musculus, NIH3T3, 24 h
[9] = system: CBL-resistant K562 cell line; assay type: cell-based, Human; details: K562, 24-h incubation, Annexin-V
[10] = system: primary chronic lymphocytic leukemia (CLL) cells; assay type: cell-based, Human; details: treatment with 50 μM
[11] = system: 17.7 kb segment of nDNA at the b-globin gene and 8.9 kb fragment of mtDNA; test: DNA damage by PCR amplification of nDNA and mtDNA; assay type: cell-based; details: PCR amplification after cell treatment
[12] = system: peripheral blood mononuclear cells (PBMCs) from normal healthy donors; details: treatment with 50 μM

In the case of `O=C(O)CCCc1ccc(N(CCCl)CCCl)cc1` [CBL, chlorambucil], the IC50 [1] is reported as 45.7 ± 3.71 µM, the IC50 [2] is reported as 47.4 ± 5.08 µM and the IC50 [3] is reported as 236 ± 16.9 µM. The IC50 [4] was 417 ± 27.9 µM, the IC50 [5] was > 1000 µM and the IC50 [6] was 321 ± 33.2 µM. The IC50 [7] was > 600 µM, the IC50 [8] was > 600 µM and the apoptotic cell population [9] was 11.24%. The CLL cells killed [10] was 32.3%, the “DNA damage in nuclear and mitochondrial genome” value [11] was “primarily damaged nDNA with very few mitochondrial lesions” and the PBMCs killed [12] was 11%.
